# Measured values taken from patent US12173088B2, “Anti-microbial peptides” (priority 2018, dated 2024).
# Like-named read-outs stand apart in the source and are kept apart here. Peptide text beside a SMILES is read from it.
# Tests used:
# [1] = tested on: S. aureus M838-17 (MRSA); assay: microbe, parasite or virus in culture; type: cell-based, Staphylococcus aureus; conditions: for MIC: read-out: MIC S. aureus M838-17 (MRSA)
# Procedure, shortened: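 Peptides were serially diluted two-fold against bacteria grown in tryptic soy broth to log phase (OD600 ≈0.5), then seeded at OD600 0.001. Plates were held overnight at 37° C and read at 630 nm. USA300 was also tested at pH 6.8, 7.2 and 8.0, with 150 mM NaCl or 5-10% serum, plasma or peritoneal fluid.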
# [2] = tested on: human red blood cells (hRBCs); assay: Hemolytic assay; type: cell-based
# Procedure, shortened: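 HL50 marks the peptide level lysing half of a 2% (v/v) suspension of washed human erythrocytes after 1 h at 37 °C. Released hemoglobin measured at 545 nm, scaled between PBS (0%) and Triton X-100 (2% or 1%; 100%). Selectivity index computed as HL50 over MIC.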
# [3] = tested on: S. aureus JE2 (wild type)
# Description: (§1) The antibacterial activity of peptides was evaluated using a standard broth microdilution protocol with minor modifications (Mishra, et al. (2017) Acta Biomater., 49:316-328). In brief, logarithmic phase bacterial cultures (i.e., optical density at 600 nm≈0.5) were diluted to 0.001 OD and aliquoted 90 μL per well into a 96-well polystyrene microplate. Added 10 μL peptides per well with various concentrations, plates were incubated at 37° C., overnight. Post incubation the plates are read at 630 nm using a ChroMate® Microplate Reader (GMI). […] To study the influence of medium conditions on the antimicrobial activity of peptides against S. aureus USA300 at different pHs (6.8, 7.2, and 8.0), 150 mM sodium chloride (NaCl), 5-10% of human serum, mouse plasma, and peritoneal fluid were included into the assays.
# [4] = tested on: S. aureus ΔmprF mutant; conditions: Table 17; strain ΔmprF
# Description: as §1
# [5] = tested on: A. baumannii B26-16; assay: microbe, parasite or virus in culture; type: cell-based, Acinetobacter baumannii
# Procedure, shortened: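 Broth microdilution in tryptic soy broth: log-phase cultures diluted to 0.001 OD600 and exposed to peptide dilutions overnight at 37 °C, growth read at 630 nm. For S. aureus USA300, medium effects tested at pH 6.8, 7.2 and 8.0, with 150 mM NaCl, or with 5–10% human serum, mouse plasma or peritoneal fluid.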
# [6] = Toxicity to cells; type: cell-based; conditions: splenocytes (mouse spleen), Spleenocytes, read-out: LC50 (the source's name)
smiles,measurement,setting,value
"CC(C)C[C@H](NC(=O)[C@H](CC(C)C)NC(=O)[C@H](CCCCN)NC(=O)[C@H](CC(C)C)NC(=O)CNC(=O)[C@H](CC(C)C)NC(=O)[C@H](CO)NC(=O)[C@H](CC(C)C)NC(=O)[C@H](CC(C)C)NC(=O)[C@H](CC(C)C)NC(=O)[C@H](CCCCN)NC(=O)[C@H](CC(C)C)NC(=O)CN)C(N)=O [DFT561, GLKLLLSLGLKLL] (H-GLKLLLSLGLKLL-NH2; N-terminus and C-terminus assumed)",MIC,[1]; M838-17,3.1 µM
"CC(C)C[C@H](NC(=O)[C@H](Cc1c[nH]c2ccccc12)NC(=O)[C@H](Cc1c[nH]c2ccccc12)NC(=O)[C@@H](N)Cc1c[nH]c2ccccc12)C(=O)N[C@@H](CCCNC(=N)N)C(=O)N[C@@H](CCCNC(=N)N)C(=O)N[C@@H](CCCNC(=N)N)C(=O)N[C@@H](Cc1c[nH]c2ccccc12)C(N)=O [Horine, WWWLRRRW] (H-WWWLRRRW-NH2; N-terminus and C-terminus assumed)",HL50,[2],150 µM
same,MIC,[3]; JE2 (wild type),4 µM
same,MIC,[4],2 µM
same,MIC,"[5]; B26-16, read-out: MIC A. baumannii B26-16",32 µM
same,CC50,[6],> 50 µM
CN[C@H](CC(C)C)C(=O)N[C@H]1C(=O)N[C@@H](CC(N)=O)C(=O)N[C@H]2C(=O)N[C@H]3C(=O)N[C@H](C(=O)N[C@H](C(=O)O)c4cc(O)cc(O)c4-c4cc3ccc4O)[C@H](O)c3ccc(c(Cl)c3)Oc3cc2cc(c3O[C@@H]2O[C@H](CO)[C@@H](O)[C@H](O)[C@H]2O[C@H]2C[C@](C)(N)[C@H](O)[C@H](C)O2)Oc2ccc(cc2Cl)[C@H]1O [Vancomycin],MIC,"[1]; Staphylococcus aureus, MRSA",0.78 µM
same,MIC,"[5]; Acinetobacter baumannii, B2616, read-out: MIC A. baumannii B26-16",> 8 µM
"CC(C)[C@H](NC(=O)[C@H](Cc1c[nH]c2ccccc12)NC(=O)[C@H](Cc1c[nH]c2ccccc12)NC(=O)[C@H](Cc1c[nH]c2ccccc12)NC(=O)[C@H](Cc1c[nH]c2ccccc12)NC(=O)[C@H](CCCNC(=N)N)NC(=O)[C@H](CCCNC(=N)N)NC(=O)[C@@H](N)CCCNC(=N)N)C(N)=O [Verine, RRRWWWWV] (H-RRRWWWWV-NH2; N-terminus and C-terminus assumed)",MIC S. aureus M838-17,[1]; Table 12,3.1 µM
same,HL50,[2]; Table 12,130^2 μM
same,MIC,"[3]; Table 17, strain JE2",4 µM
same,MIC,[4],2 µM
same,MIC,"[5]; Table 14, read-out: MIC A. baumannii B26-16",8 µM
same,CC50,[6],> 12.5 µM
